Reference: ChEMBL document CHEMBL5724558, “Image-based profiling of drug vulnerabilities in CRC organoids” (2024)
Where “and” joins values, the source holds several entries; their conditions need not be identical. Equal values may be shown once.

Experiments:
Type in all cases: functional, Homo sapiens
Set-up in all cases: dose or concentration left out as unconfirmed
Colon cancer organoid [1] = assay: (§1) Image-based profiling of donated chemical probes and chemogenomic kinase set in O06 CRC organoid. Image analysis is performed on the sum area metric, and the data were normalized to the DMSO control. After imaging the organoid viability is measured using the OneGloEX Luciferase Assay System. The normalized viability data and sum area are reported.
Colon cancer organoid [2] = assay: as §1, with “O09” for “O06”
Colon cancer organoid [3] = assay: as §1, with “O21” for “O06”

| Compound | Cell Viability (Colon cancer organoid [1]; Replication number 1) | Cell Viability (Colon cancer organoid [1]; Replication number 2) | Cell Viability (Colon cancer organoid [2]; Replication number 1) | Cell Viability (Colon cancer organoid [2]; Replication number 2) | Cell Viability (Colon cancer organoid [3]; Replication number 1) | Cell Viability (Colon cancer organoid [3]; Replication number 2) |
| --- | --- | --- | --- | --- | --- | --- |
| CC(=O)N1CCC(c2ccc(C(=O)NC(=N)N)cc2C(F)(F)F)CC1 [BI 9627] | 92.5077% and 96.2529% | 95.2505% and 62.3038% | 138.648% and 103.929% | 116.481% and 107.777% | 89.2518% and 118.176% | 98.5958% and 100.51% |
| CCCCN(Cc1ccccc1)C(=O)c1ccc(S(=O)(=O)Nc2ccccc2)cc1 | 128.543% and 118.777% | 114.906% and 147.848% | 116.29% and 115.073% | 99.5038% and 96.018% | 85.4191% and 92.3751% | 113.731% and 107.676% |
| Cc1cnc(-c2cc(Cl)ccc2F)cc1-n1c(=O)n(CC(N)=O)c2ccccc21 [Al11] | 119.898% and 115.628% | 113.033% and 103.316% | 78.4595% and 96.5987% | 101.459% and 100.317% | 94.0699% and 103.674% | 91.9117% and 97.8926% |
| CCCc1cc(C)[nH]c(=O)c1CNC(=O)c1cc(-c2ccc(N3CCN(C(C)C)CC3)nc2)cc2c1cnn2C(C)C | 117.017% and 105.342% | 150.35% and 108.975% | 144.261% and 110.819% | 125.635% and 91.796% | 90.7936% and 81.7113% | 90.0059% and 120.286% |
| O=C(NCCN1CCOCC1)c1ccc2c(c1)C(=O)c1ccc(Nc3ccc(F)c(NC(=O)c4ccccc4)c3)cc1CC2 [FS-694] | 84.5729% and 99.5951% | 109.979% and 139.596% | 75.6733% and 93.7852% | 52.7357% and 85.0515% | 104.56% and 105.311% | 87.9959% and 93.3039% |
| Cn1cc(-c2ccc3occ(-c4cccc(-c5ccncc5)c4)c3n2)cn1 | 105.822% and 114.901% | 68.0406% and 107.425% | 82.6672% and 85.8718% | 87.0318% and 75.2306% | 96.3699% and 105.976% | 129.888% and 115.611% |
| CC(=O)Nc1nc(CN2CCC[C@H](Cc3cc(C)nc(C)c3)C2)cs1 [JNJ-73924149] | 110.009% and 115.731% | 115.696% and 107.702% | 161.492% and 89.8313% | 217.991% and 98.2452% | 83.219% and 91.2416% | 110.349% and 95.2087% |
| CC1(C)C(N)=Nc2cc(OCCCN3Cc4ccc(OCCc5cn(CC(=O)N6CCC(CCN7CCCC7)CC6)nn5)cc4C3)c(OCC3CC3)cc21 | 159.496% and 131.919% | 138.652% and 115.905% | 116.392% and 79.0572% | 168.88% and 116.313% | 89.3796% and 92.2926% | 86.2982% and 98.2697% |
| CC(=O)C1=C(C)N(c2cccc(C(F)(F)F)c2)C(=O)N[C@H]1c1ccc(C#N)nc1 [BAY-677] | 100.678% and 123.419% | 118.859% and 107.077% | 129.525% and 109.185% | 133.262% and 97.2618% | 113.516% and 88.4864% | 88.4804% and 82.1429% |
| COc1cc(N(C)c2ccnc3ccc(C(F)(F)F)cc23)cc(OC)c1OC | 100.25% and 97.181% | 103.599% and 93.0279% | 149.162% and 94.0382% | 152.627% and 99.9775% | 98.7422% and 93.5085% | 96.4741% and 84.441% |
| CC1=C(C#N)C(c2ccc3c(c2)c(NC(=O)c2ccccc2C)nn3C)C(C#N)=C(C)N1 [BAY-974] | 84.6822% and 93.2084% | 111.085% and 112.763% | 82.726% and 84.3377% | 101.367% and 119.752% | 90.5008% and 96.0543% | 89.8417% and 122.959% |
| Cl.Cl.c1ccc([C@@H]2C[C@H]2NC2CCNCC2)cc1 | 175.971% and 140.859% | 170.528% and 119.251% | 165.336% and 102.473% | 183.388% and 100.348% | 139.321% and 134.03% | 128.492% and 116.527% |
| Cc1nc(N2CC[C@H](O)C2)ncc1-c1cc(C(F)(F)F)cc2[nH]ncc12 | 99.241% and 111.944% | 84.0147% and 88.1256% | 63.142% and 75.4977% | 55.6466% and 44.9799% | 102.375% and 86.1578% | 90.0065% and 80.6122% |
